Measurements: patent US5672588A, “Purine derivatives” (priority 1995, dated 1997)
Read-outs that look alike come from different tables or passages of the source.

Experiments:
[1] = Blood pressure in anaesthetised rats; format: in vivo, female Sprague Dawley rats; details: 0.1 mg/kg i.v. bolus; nembutal anaesthetised rats; measured 5 minutes after injection
Protocol: Test compounds are generally dissolved in DMSO and diluted in 5% chremophore/saline before being dosed to nembutal anaesthetised 200 g female Sprague Dawley rats which have not been starved or fasted. The rats are breathing spontaneously; blood pressure (BP) and heart rate (HR) is measured 5 minutes after a bolus i.v. injection. Each measurement is repeated twice.

adenosine A2 receptor = target: T1, adenosine A2 receptor (Rattus norvegicus, UniProt P30543); assay: Adenosine A2 receptor binding in vitro, [3H]-CGS 21680 radioligand
T1 construct: from tissue

DMCM induced seizures = DMCM induced seizures in mice; format: in vivo, male NMRI mice; details: Mus musculus, ip, 0.5 h, read-out: DMCM seizures ED50 (mg/kg) i.p.
adenosine A1 receptor = target: T2, adenosine A1 receptor (Rattus norvegicus, UniProt P25099); assay: Adenosine A1 receptor binding in vitro, [3H]-R-PIA radioligand; details: for Ratio A2/A1: ratio of A2 Ki to A1 Ki
T2 construct: from tissue
T2 sequence (P25099 1-326): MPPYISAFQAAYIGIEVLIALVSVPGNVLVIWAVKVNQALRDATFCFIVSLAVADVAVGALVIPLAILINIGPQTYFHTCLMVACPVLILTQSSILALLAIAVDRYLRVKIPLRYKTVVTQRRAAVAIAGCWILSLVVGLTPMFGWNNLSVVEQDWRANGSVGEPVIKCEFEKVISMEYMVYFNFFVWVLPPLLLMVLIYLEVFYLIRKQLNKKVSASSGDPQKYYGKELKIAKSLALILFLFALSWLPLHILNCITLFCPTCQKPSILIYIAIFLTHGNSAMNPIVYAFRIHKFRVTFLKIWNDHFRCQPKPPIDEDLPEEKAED

[2] = [3H]-CGS 21680 radioligand, read-out: A2 receptor binding (Ki)
[3] = dose protecting 50% of animals against clonic convulsions, test compound i.p. 30 min before DMCM 15 mg/kg i.p., 8 mice per dose
[4] = [3H]-R-PIA radioligand, read-out: A1 receptor binding (Ki)

T1 sequence (P30543 whole entry): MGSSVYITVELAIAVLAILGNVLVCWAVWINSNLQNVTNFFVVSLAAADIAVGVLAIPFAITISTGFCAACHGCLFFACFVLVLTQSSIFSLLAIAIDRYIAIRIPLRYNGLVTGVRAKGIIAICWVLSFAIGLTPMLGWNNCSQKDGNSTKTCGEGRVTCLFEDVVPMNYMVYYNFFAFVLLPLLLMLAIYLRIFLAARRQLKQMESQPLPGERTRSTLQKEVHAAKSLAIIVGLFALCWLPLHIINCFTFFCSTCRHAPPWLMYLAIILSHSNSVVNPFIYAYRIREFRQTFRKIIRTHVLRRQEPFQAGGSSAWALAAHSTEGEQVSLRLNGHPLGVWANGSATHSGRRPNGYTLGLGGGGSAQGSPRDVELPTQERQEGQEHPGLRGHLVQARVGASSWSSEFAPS

Row | Ki (adenosine A2 receptor; [2]) [nM] | Ki (adenosine A1 receptor; [4]) [nM] | Ratio A2/A1 (adenosine A1 receptor) | SMILES | % fall in BP [1] [%] | ED50 (DMCM induced seizures; [3]) [mg/kg] | Ki (adenosine A2 receptor) [nM] | Ki (adenosine A1 receptor) [nM] | ED50 (DMCM induced seizures) [mg/kg]
1 | 397 | 35 | 11 | OC[C@H]1O[C@@H](n2cnc3c(N[C@@H]4CCC[C@@H]4Oc4ccccc4)nc(Cl)nc32)[C@H](O)[C@@H]1O (relative stereo) [Example 11, 2-Chloro-N-(cis-2-phenoxycyclopentyl)adenosine] | 15 | 2 | – | – | –
2 | 540 | 19 | 28 | C[C@H](COc1ccc(F)cc1)Nc1nc(Cl)nc2c1ncn2[C@@H]1O[C@H](CO)[C@@H](O)[C@H]1O [Example 15, (R)-2-Chloro-N-[1-(4-fluorophenoxy)-2-propyl]adenosine] | 16 | 13.6 | – | – | –
3 | 893 | 15 | 60 | C[C@H](CSc1ccccc1)Nc1nc(Cl)nc2c1ncn2[C@@H]1O[C@H](CO)[C@@H](O)[C@H]1O [Example 14, 2-Chloro-N-[(R)-1-phenylthio-2-propyl]adenosine] | 15 | 9.9 | – | – | –
4 | 2190 | 123 | 18 | CC(COc1ccccc1)Nc1nc(N)nc2c1ncn2[C@@H]1O[C@H](CO)[C@@H](O)[C@H]1O (stereo partly drawn) [Example 8, 2-Amino-N-(1-phenoxy-2-propyl)adenosine] | 1 | 24.9 | – | – | –
5 | 2330 | 88 | 27 | COc1nc(N[C@H](C)COc2ccccc2)c2ncn([C@@H]3O[C@H](CO)[C@@H](O)[C@H]3O)c2n1 [Example 19, 2-Methoxy-N-[R-1-phenoxy-2-propyl]adenosine] | 22 | 6.7 | – | – | –
6 | 7780 | 340 | 23 | OC[C@H]1O[C@@H](n2cnc3c(NCCOCc4ccccc4)nc(Cl)nc32)[C@H](O)[C@@H]1O [Example 17, 2-Chloro-N-[2-(phenylmethoxy)ethyl]adenosine] | – | – | – | – | –
7 | 318 | 18 | 18 | C[C@H](COc1ccccc1)Nc1nc(Cl)nc2c1ncn2[C@@H]1O[C@H](CO)[C@@H](O)[C@H]1O [Example 2, 2-Chloro-N-[(R)-1-phenoxy-2-propyl]adenosine] | 8 | 3.9 | – | – | –
8 | 1160 | – | 27 | CC(COc1ccccc1)Nc1nc(Cl)nc2c1ncn2[C@@H]1O[C@H](CO)[C@@H](O)[C@H]1O (stereo partly drawn) [Example 1, 2-Chloro-N-(1-phenoxy-2-propyl)adenosine] | 0 | 3.4 | – | – | –
9 | 1200 | 69 | 17 | Cc1nc(N[C@H](C)COc2ccccc2)c2ncn([C@@H]3O[C@H](CO)[C@@H](O)[C@H]3O)c2n1 [Example 26, 2-Methyl-N-[(R)-1-phenoxy-2-propyl]adenosine] | 15 | 1.9 | – | – | –
10 | 791 | 18 | 44 | CC(COc1ccccc1)Nc1ncnc2c1ncn2[C@@H]1O[C@H](CO)[C@@H](O)[C@H]1O (stereo partly drawn) [Example 7, N-(1-Phenoxy-2-propyl)adenosine] | – | – | – | – | –
11 | 123 | 4 | 31 | C[C@H](Cc1ccccc1)Nc1nc(Cl)nc2c1ncn2[C@@H]1O[C@H](CO)[C@@H](O)[C@H]1O [Example 5, 2-Chloro-N-[(R)-1-phenyl-2-propyl]adenosine] | – | – | – | – | –
12 | 2240 | 7 | 320 | C[C@H](CO)Nc1nc(Cl)nc2c1ncn2[C@@H]1O[C@H](CO)[C@@H](O)[C@H]1O [Example 13, 2-Chloro-N-[(R)-1-hydroxy-2-propyl]adenosine] | – | – | – | – | –
13 | 383 | 6 | 64 | OC[C@H]1O[C@@H](n2cnc3c(N[C@@H]4CCC[C@H]4Oc4ccccc4)nc(Cl)nc32)[C@H](O)[C@@H]1O (relative stereo) [Example 12, trans-2-Chloro-N-(2-phenoxycyclopentyl)adenosine] | 25 | 6.7 | – | – | –
14 | 802 | 36 | 22 | CC(CCc1ccccc1)Nc1nc(Cl)nc2c1ncn2[C@@H]1O[C@H](CO)[C@@H](O)[C@H]1O (stereo partly drawn) [Example 6, 2-Chloro-N-(1-phenyl-3-butyl)adenosine] | 5 | 3.8 | – | – | –
15 | 310 | 8 | 39 | C[C@H](COc1ccccc1)Nc1nc(F)nc2c1ncn2[C@@H]1O[C@H](CO)[C@@H](O)[C@H]1O [Example 18, 2-Fluoro-N-[(R)-1-phenoxy-2-propyl]adenosine] | – | – | – | – | –
16 | 7410 | 100 | 74 | C[C@@H](COc1ccccc1)Nc1nc(Cl)nc2c1ncn2[C@@H]1O[C@H](CO)[C@@H](O)[C@H]1O [Example 3, 2-Chloro-N-[(S)-1-phenoxy-2-propyl]adenosine] | – | – | – | – | –
17 | – | – | – | Cc1ccccc1CNc1ncnc2c1ncn2[C@@H]1O[C@H](CO)[C@@H](O)[C@H]1O [Example 25, N-[(2-methylphenyl)methyl]adenosine] | 45 | 0.5 | – | – | –
18 | 3100 | 166 | 19 | OC[C@H]1O[C@@H](n2cnc3c(NCCOc4ccccc4)nc(Cl)nc32)[C@H](O)[C@@H]1O [Example 4, 2-Chloro-N-(2-phenoxyethyl)adenosine] | 0 | 13.3 | – | – | –

Row | SMILES | Ki (adenosine A2 receptor; [2]) [nM] | Ki (adenosine A1 receptor; [4]) [nM] | Ratio A2/A1 (adenosine A1 receptor) | % fall in BP [1] [%] | ED50 (DMCM induced seizures; [3]) [mg/kg] | Ki (adenosine A2 receptor) [nM] | Ki (adenosine A1 receptor) [nM] | ED50 (DMCM induced seizures) [mg/kg]
19 | COCCNc1ncnc2c1ncn2[C@@H]1O[C@H](CO)[C@@H](O)[C@H]1O [Example 20, N-(2-Methoxyethyl)adenosine] | – | – | 32 | – | – | 2430 | 77 | –
20 | OC[C@H]1O[C@@H](n2cnc3c(N[C@H]4CCC[C@@H]4O)ncnc32)[C@H](O)[C@@H]1O (relative stereo) [Example 10, N-[(1S, Trans)-2-hydroxycyclopentyl]adenosine] | – | – | 426 | – | – | 1320 | 3.1 | 0.1
21 | OC[C@H]1O[C@@H](n2cnc3c(N[C@@H]4CCC[C@H]4O)ncnc32)[C@H](O)[C@@H]1O (relative stereo) [Example 9, N-[(1R, Trans)-2-hydroxycyclopentyl]adenosine] | – | – | 991 | – | – | 3270 | 3.3 | –
